In ChEMBL document CHEMBL1138792, “Successful virtual screening for a submicromolar antagonist of the neurokinin-1 receptor based on a ligand-supported homology model” (J Med Chem, 2004):

Target: Substance-P receptor (Homo sapiens, UniProt P25103)
Experiment: Inhibition of substance P binding to Tachykinin receptor 1 in Chinese hamster ovary cells
Type: cell-based
Settings: not given

Chain of Substance-P receptor (P25103 whole entry): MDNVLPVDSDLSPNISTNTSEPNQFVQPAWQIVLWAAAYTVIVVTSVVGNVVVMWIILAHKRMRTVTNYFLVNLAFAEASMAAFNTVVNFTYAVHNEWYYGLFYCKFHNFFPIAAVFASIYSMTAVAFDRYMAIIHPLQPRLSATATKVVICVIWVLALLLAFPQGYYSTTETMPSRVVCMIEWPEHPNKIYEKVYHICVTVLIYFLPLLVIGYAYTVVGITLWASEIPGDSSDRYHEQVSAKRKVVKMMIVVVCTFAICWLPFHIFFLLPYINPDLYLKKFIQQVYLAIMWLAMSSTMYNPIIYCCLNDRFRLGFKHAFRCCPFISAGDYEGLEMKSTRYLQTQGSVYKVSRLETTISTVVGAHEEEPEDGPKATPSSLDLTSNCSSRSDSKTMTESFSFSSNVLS

Point of comparison: Cc1cc(C)cc(COC(=O)[C@H](N)Cc2c[nH]c3ccccc23)c1, IC50 1530 nM. Against it:
- CC(=O)NC(Cc1c[nH]c2ccccc12)C(=O)OCc1cc(C)cc(C)c1 (centres undefined) — 23-fold lower, 67 nM
- N[C@H](Cc1c[nH]c2ccccc12)C(=O)OCc1ccccc1 — higher, > 10000 nM
- COc1ccc(-n2cnnn2)cc1CN[C@H]1CCCN[C@H]1c1ccccc1 — 26000-fold lower, 0.06 nM
- O=C(CSc1nnc(-c2ccncc2)n1-c1ccccc1)Nc1cccc(Cl)c1 — 6.1-fold lower, 250 nM
- FC(F)(F)c1cc(COCC2(c3ccccc3)CCNCC2)cc(C(F)(F)F)c1 — 1500-fold lower, 1 nM
- NC(COCc1ccccc1)C(c1ccccc1)c1ccccc1 (centres undefined) — 3.8-fold lower, 400 nM
- NC(=O)CNC(COCc1cc(C(F)(F)F)cc(C(F)(F)F)c1)C(c1ccccc1)c1ccccc1 (stereo in doubt; 5) — 2900-fold lower, 0.53 nM

Same assay, conditions: ovary

NC(=O)CNC(COCc1cc(C(F)(F)F)cc(C(F)(F)F)c1)C(c1ccccc1)c1ccccc1 (stereo in doubt; 16) showed an IC50 of 0.53 nM.
